Results published in patent publication US5747540A, “HIV protease inhibitors useful for the treatment of AIDS” (Merck & Co., Inc., priority 1996, dated 1998).

Assays:
HIV protease = molecular target: T1, HIV protease (Human immunodeficiency virus type 1 group M subtype B, UniProt P12497); assay: Assay for inhibition of microbial expressed HIV protease (peptide substrate, HPLC); assay type: biochemical; details: protease expressed in Eschericia coli, 50 mM Na acetate, pH 5.5, 30° C., 1 hour
T1 construct: the protease expressed in Eschericia coli; made in house; host or cells: Escherichia coli
Procedure: Assay for Inhibition of Microbial Expressed HIV Protease
Inhibition studies of the reaction of the protease expressed in Eschericia coli with a peptide substrate [Val-Ser-Gln-Asn(betanapthyl)Ala-Pro-Ile-Val, 0.5 mg/mL at the time the reaction is initiated] were in 50 mM Na acetate, pH 5.5, at 30° C. for 1 hour. Various concentrations of inhibitor in […] DMSO were added to […] of the peptide solution in water. The reaction is initiated by the addition of […] of 0.33 nM protease (0.11 ng) in a solution of 0.133M Na acetate pH 5.5 and 0.1% bovine serum albumin. The reaction was quenched with 160 ml of 5% phosphoric acid. Products of the reaction were separated by HPLC (VYDAC wide pore 5 cm C-18 reverse phase, acetonitrile gradient, 0.1% phosphoric acid). The extent of inhibition of the reaction was determined from the peak heights of the products.

HIV-1 strain IIIb = assay: Inhibition of virus spread in HIV-infected MT-4 cells (p24 antigen); assay type: cell-based; details: Human immunodeficiency virus 1, MT4, 72 h; HIV-1 IIIb-infected MT-4 cells; 3 days incubation; HIV p24 antigen in supernatant; read-out: CIC95
Procedure: INHIBITION OF VIRUS SPREAD
A. Preparation of HIV-infected MT-4 cell Suspension.
MT cells were infected at Day 0 at a concentration of 250,000 per ml with a 1:1000 dilution of HIV-1 strain IIIb stock (final 125 pg p24/ml; sufficient to yield ≤1% infected cells on day 1 and 25-100% on day 4). Cells were infected and grown in the following medium: RPMI 1640 (Whittaker BioProducts), 10% inactivated fetal bovine serum, 4 mM glutamine (Gibco Labs) and 1:100 Penicillin-Streptomycin (Gibco Labs).
The mixture was incubated overnight at 37° C. in 5% CO2 atmosphere.
B. Treatment with Inhibitors
A matrix of nanomolar range concentrations of the pairwise combinations was prepared. At Day 1, aliquots of […] of inhibitors were added to equal volumes of HIV-infected MT-4 cells (50,000 per well) in a 96-well microtiter cell culture plate. Incubation was continued for 3 days at 37° C. in 5% CO2 atmosphere.
C. Measurement of Virus Spread
Using a multichannel pipettor, the settled cells were resuspended and […] harvested into a separate microtiter plate. The supernatant was assayed for HIV p24 antigen.
The concentration of HIV p24 antigen was measured by an enzyme immunoassay,described as follows. Aliquots of p24 antigen to be measured were added to microwells coated with a monoclonal antibody specific for HIV core antigen. […]

IC50 (HIV protease) [nM] | Structure (SMILES) | IC95 (HIV-1 strain IIIb) [nM]
1 to 6 | CC(C)(C)NC(=O)c1ccccc1C[C@@H](O)C[C@@H](Cc1ccccc1)C(=O)N[C@H]1c2ccccc2C[C@H]1O [Compound A] | 800
1 to 6 | CC(C)(C)NS(=O)(=O)c1ccccc1C[C@@H](O)C[C@@H](Cc1ccccc1)C(=O)N[C@H]1c2ccccc2C[C@H]1O [Compound B] | 1500
1 to 6 | Cc1ccc(C[C@@H](O)C[C@@H](Cc2ccccc2)C(=O)N[C@H]2c3ccccc3C[C@H]2O)c(C(=O)NC(C)(C)C)c1 [Compound C] | –
